In brackets after ≈: the same amount, converted by molar mass.
What was measured:
[1] = tested on: L. amazonensis promastigotes; experiment: Lipid bodies accumulation (Nile red); format: cell-based, Leishmania amazonensis
Protocol: Promastigotes at 1 × 10^6 parasites mL^−1 treated with BT‐1 for 24 h were incubated with 10 μg mL^−1 Nile red, a lipophilic stain, for 30 min at 25°C. The fluorescence was measured in a Victor X3 spectrofluorimeter (PerkinElmer, Waltham, MA, USA) at λex of 485 nm and λem of 535 nm (Stefanello et al. [2014]).

[2] = tested on: L. amazonensis promastigote forms; experiment: Antiproliferative assay (XTT); format: cell-based, Leishmania amazonensis
Protocol: L. amazonensis MHOM/BR/75/Josefa strain was originally isolated from a human case of CL by Dr. […]. Cuba at the University of Brasilia, Brazil (Saraiva et al. [1983]; Cuba et al. [1985]). […] The activity against promastigotes was evaluated by XTT (0.5 mg mL^-1), as previously described (Meshulam et al. [1995]). Absorbance was read in a microplate spectrophotometer (PowerWave XS; BioTek, Winooski, VT, USA) at 450 nm.

[3] = tested on: L. amazonensis promastigotes; experiment: Mitochondrial membrane potential (Rh123, flow cytometry); format: cell-based, Leishmania amazonensis; settings: for Mitochondrial potential: Average (Median): 24 h, Rh123 fluorescence
Protocol: Promastigotes at 1 × 10^6 parasites mL^−1 treated with BT‐1 for 24 h were incubated with 5 μg mL^−1 Rh123, a fluorescent probe that accumulates in mitochondria, for 15 min (Menna‐Barreto, Corrêa, et al. [2009]; Menna‐Barreto, Goncalves, et al. [2009]). As a positive control, 100 μM CCCP was used. The data acquisition and analysis were performed using a FACSCalibur flow cytometer (BD Biosciences, Franklin Lakes, NJ, USA) equipped with CellQuest software. A total of 10,000 events were acquired in the region corresponding to the parasites.

J774A.1 macrophages = experiment: Cytotoxicity assay in macrophages (MTT); format: cell-based; settings: at 23.2 μM (IC50 against promastigotes)
[4] = tested on: L. amazonensis promastigotes; experiment: Cell size (FSC-H, flow cytometry); format: cell-based, Leishmania amazonensis; settings: 2 × IC50, 24 h
Protocol: Promastigotes at 1 × 10^6 parasites mL^−1 treated with BT‐1 for 24 h were washed twice and resuspended in phosphate‐buffered saline (PBS), then analyzed using a FACSCalibur flow cytometer (BD Biosciences, Franklin Lakes, NJ, USA) equipped with CellQuest software. As a positive control, […] actinomycin D was used. A total of 10,000 events were acquired in the region that corresponded to the parasites. Histograms were generated for each sample, where the forward light scatter (FSC‐H) represents the cell volume (Lazarin‐Bidóia et al. [2013]).

[5] = Cytotoxicity assay in macrophages (MTT); format: cell-based; settings: mouse, J774A.1 macrophages, pH 7.2
Protocol: L. amazonensis MHOM/BR/75/Josefa strain was originally isolated from a human case of CL by Dr. Cesar A. Cuba at the University of Brasilia, Brazil (Saraiva et al. [1983]; Cuba et al. [1985]). Promastigote forms of this strain were maintained axenically in Warren's medium (brain–heart infusion plus hemin and folic acid; pH 7.2) supplemented with 10% heat‐inactivated FBS and maintained at 25°C. J774A.1 macrophages (obtained from the Cell Bank of Rio de Janeiro, RJ, Brazil) were maintained in RPMI‐1640 medium (pH 7.2), supplemented with sodium bicarbonate, L‐glutamine, 10% FBS, and streptomycin and penicillin at 37°C in a 5% CO2 atmosphere.
Cytotoxicity was evaluated in the J774A.1 macrophages. Macrophages (5 × 10^5 cells mL^−1) were cultured in 96‐well microplates containing RPMI‐1640 medium supplemented with 10% FBS. The plates were incubated at 37°C in a 5% CO2 atmosphere for confluent growth of the cells. After 24 h, the compounds were added to each well at increasing concentrations (31.25–1000 μM) and incubated for 48 h at 37°C in a 5% CO2 atmosphere. The cytotoxicity was evaluated by MTT (2 mg mL^−1), as previously described (Mosmann [1983]). Absorbance was read in a microplate spectrophotometer (PowerWave XS; BioTek, […], VT, USA) at 570 nm.

[6] = tested on: L. amazonensis promastigotes; experiment: Cell membrane integrity (PI, flow cytometry); format: cell-based, Leishmania amazonensis
Protocol: Promastigotes at 1 × 10^6 parasites mL^−1 treated with BT‐1 for 24 h were incubated with 0.2 μg mL^−1 PI for 10 min. As a positive control, 40 μM digitonin was used. The data acquisition and analysis were performed using a FACSCalibur flow cytometer (BD Biosciences, Franklin Lakes, NJ, USA) equipped with CellQuest software. A total of 10,000 events were acquired in the region that corresponded to the parasites. Alterations in PI fluorescence were quantified as the percentage increase in fluorescence compared with the untreated parasites (Lazarin‐Bidóia et al. [2013]).

[7] = tested on: L. amazonensis promastigotes; experiment: Cell cycle (PI-RNAse A, flow cytometry); format: cell-based, Leishmania amazonensis; settings: IC50, 24 h
Protocol: Promastigotes at 1 × 10^6 parasites mL^−1 treated with BT‐1 for 24 h were fixed in 70% cold methanol in PBS at 4°C for 2 h. Afterward, the parasites were washed in PBS, 10 μg mL^−1 PI‐RNAse A was added, and the samples were incubated at 37°C for 45 min. The data acquisition and analysis were performed using a FACSCalibur flow cytometer (BD Biosciences, Franklin Lakes, NJ, USA) equipped with CellQuest software. A total of 10,000 events were acquired in the region that corresponded to the parasites. As a positive control, 40 μM miltefosine was used. The percentages of cells in each stage of the cell cycle were determined based on the intensity of the PI fluorescence, which is directly proportional to the DNA content.

[8] = tested on: L. amazonensis promastigotes; experiment: Reactive oxygen species production (H2DCFDA); format: cell-based, Leishmania amazonensis
Protocol: Promastigotes at 1 × 10^6 parasites mL^−1 treated with BT‐1 for 24 h were incubated with 10 μM H2DCFDA in the dark for 45 min. As a positive control, 50 μM H2O2 was used. The fluorescence was determined by oxidation of H2DCFDA to the fluorescent product, 2′‐7ʹ dichlorofluorescein (DCF), which was measured in a Victor X3 spectrofluorimeter (PerkinElmer, Waltham, MA, USA) at λex of 488 nm and λem of 530 nm (Shukla et al. [2012]).

[9] = tested on: L. amazonensis promastigotes; experiment: Lipid peroxidation assay (DPPP); format: cell-based, Leishmania amazonensis
Protocol: Promastigotes at 1 × 10^6 parasites mL^−1 treated with BT‐1 for 24 h were incubated with 50 μM DPPP for 15 min at 22°C. As a positive control, 50 μM H2O2 was used. The fluorescence was determined in a Victor X3 spectrofluorimeter (PerkinElmer, Waltham, MA, USA) at λex of 355 nm and λem of 460 nm. DPPP is essentially nonfluorescent until it is oxidized to a phosphine oxide (DPPP‐O) by peroxides (Okimoto et al. [2000]).

[10] = tested on: L. amazonensis promastigote forms; experiment: Morphological and ultrastructural changes (SEM, TEM); format: cell-based, Leishmania amazonensis; settings: IC50 or 2 × IC50, 72 h
Protocol: After this, the parasites were fixed in a solution of 2.5% glutaraldehyde in 0.1 M cacodylate buffer for 24 h at 4°C. For scanning electron microscopy (SEM), the parasites were dehydrated in increasing concentrations of ethanol, critical point‐dried in CO2, sputter‐coated with gold, and observed in a Quanta 250 scanning electron microscope (FEI Company, Hillsboro, OR, USA). For transmission electron microscopy (TEM), the parasites were fixed as described for SEM. After this, the parasites were postfixed in a solution of 1% OsO4, 0.8% K4[Fe(CN)6], and 10 mM CaCl2 in 0.1 M cacodylate buffer. The samples were dehydrated in increasing concentrations of acetone and embedded in Poly/Bed 812 resin. Ultrathin sections were then obtained, contrasted with uranyl acetate and lead citrate, and observed in a JEM 1400 transmission electron microscope (JEOL Ltd., Tokyo, Japan).

[11] = tested on: Leishmania amazonensis amastigote; parameters: method as in Takahashi et al. [2011]; settings: previous work; ref Takahashi et al. [2011]; cited from earlier work
[12] = tested on: Leishmania amazonensis promastigote; parameters: method as in Takahashi et al. [2011]; settings: previous work; ref Takahashi et al. [2011]; cited from earlier work

In the case of `CCC(O)C#Cc1ccc(-c2ccc(C=O)s2)s1` (stereo not shown) [Compound 1], the “increase in lipid body accumulation vs untreated control” value ([1]; 2 × IC50, 24 h) is reported as 1.5 fold, the “increase in lipid body accumulation vs untreated control” value ([1]; IC50, 24 h) is reported as 1.4 fold and the IC50 ([2]; Leishmania amazonensis, 72 h, 25°C, XTT, read-out: L. amazonensis (promastigotes) IC50) is reported as 23.2 ± 1.1 µM. The “Selectivity index (SI)” value ([2]; ratio between the CC50 (J774A.1 macrophages) and IC50 (promastigotes)) was 9.33, the “Mitochondrial potential: Average (Median)” value ([3]; 23.2 μM (IC50)) was 1841.42 and the “Mitochondrial potential: Average (Median)” value ([3]; 46.4 μM (2 × IC50)) was 796.77. The “reduction of mitochondrial potential compared with the untreated control” value ([3]; 2 × IC50, 24 h) was 2.75 fold, the “toxicity to J774A.1 macrophages” value (J774A.1 macrophages) was “no toxicity” and the “decrease in cell size compared with the untreated control” value [4] was 1.45 fold. The CC50 at 48 h [5] was 216 ± 5.1 µM, the “increase of PI-stained cells vs untreated control” value ([6]; 2 × IC50, 24 h) was 11.13 fold and the “increase of PI-stained cells vs untreated control” value ([6]; IC50, 24 h) was 3.48 fold. The “increase of cells in G0/G1 phase” value [7] was 1.3 fold, the “increase of cells in sub-G0/G1 phase” value [7] was 2.22 fold and the “increase in the production of total ROS vs untreated control” value ([8]; 2 × IC50, 24 h) was 9.0 fold. The “increase in the production of total ROS vs untreated control” value ([8]; IC50, 24 h) was 3.0 fold, the “increase in lipoperoxidation vs untreated control” value ([9]; 2 × IC50, 24 h) was 8.0 fold and the “increase in lipoperoxidation vs untreated control” value ([9]; IC50, 24 h) was 3.0 fold. For the same compound, the “morphological alterations by SEM” value [10] was “rounded shape and a reduction in cell body size, cell surface roughness, a shorter flagellum, and extravasation of cytoplasmic content” and the “ultrastructural alterations by TEM” value [10] was “presence of lipid bodies, loss of cell content, disorganization of the nucleus, a large amount of exocytic activity, and mitochondrial swelling”.
In the case of `CC(=O)OCCC#Cc1ccc(-c2ccc(C)s2)s1` [I, 5′‐methyl‐(5‐[4‐acetoxy‐1‐butynyl])‐2,2′‐bithiophene], the IC50 amastigote [11] is given as 28.7 ± 2.6 µg/mL (≈ 98.8 µM) and the IC50 promastigote [12] is given as 21.3 ± 4.4 µg/mL (≈ 73.3 µM).

Source: publication PMC12374030, “Hydroxyalkyne–Bithiophene Derivatives: Synthesis and Antileishmanial Activity” (Chemical Biology & Drug Design, 2025)
